Assay results from patent US8372982B2, “Fungicidal N-(Phenylcycloalkyl)carboxamide, N-(Benzylcycloalkyl)carboxamide and thiocarboxamide derivatives” (Bayer Cropscience AG, priority 2009, dated 2013).

System: Leptosphaeria nodosum
Assay: In vivo comparative test on Leptosphaeria nodoruin (wheat)/preventive
Settings: dose of 500 ppm, preventive, evaluated 10 days after the inoculation
Description: Solvent: 49 parts by weight of N,N-dimethylacetamide Emulsifier: 1 part by weight of alkylaryl polyglycol ether To produce a suitable preparation of active compound, 1 part by weight of active compound or the compound combination is mixed with the stated amounts of solvent and emulsifier, and the concentrate is diluted with water to the desired concentration. To test for protective activity, young plants are sprayed with a preparation of active compound or active compound combination at the stated rate of application. After the spray coating has dried on, the plants are sprayed with a spore suspension of Leptosphaeria nodosum. The plants remain for 48 hours in an incubation cabinet at 20° C. and a relative atmospheric humidity of 100%. The plants are placed in a greenhouse at a temperature of approximately 15° C. and a relative atmospheric humidity of approximately 80%. The test is evaluated 10 days after the inoculation. 0% means an efficacy which corresponds to that of the control, while an efficacy of 100% means that no disease is observed. […]

In the case of Cn1cc(C(=O)N[C@@H]2C[C@@H]2c2ccc(Cl)cc2)c(C(F)F)n1 (relative stereo) [Example 1.001, cis-N-[2-(4-chlorophenyl)cyclopropyl]-3-(difluoro-methyl)-1-methyl-1H-pyrazole-4-carboxamide], the disease control was “less than 10%”.
